The record followed here is ChEMBL document CHEMBL1144881, “3,6-dibromocarbazole piperazine derivatives of 2-propanol as first inhibitors of cytochrome c release via Bax channel modulation” (J Med Chem, 2003).

The subject of test [1] is HeLa. The experiment in a line: cells. Format: functional. As to conditions: Homo sapiens.
Description: In vitro inhibition of cytochrome C release in isolated mitochondria by the compound at a concentration of 20 uM was determined
In test [2] the test system is HeLa. As to the kind of experiment: cells. The class given is functional. As to conditions: Homo sapiens. The source holds these as a separate data set.
Test [3] has as its system HeLa. As to the kind of experiment: cells. The class given is functional. The following applies: Homo sapiens. This is another data set of the same source.
Description: In vitro inhibition of cytochrome C release in isolated mitochondria by the compound at a concentration of 10 uM was determined
Test [4] addresses Apoptosis regulator BAX (Homo sapiens) (UniProt Q07812). As to the kind of experiment: cells.
Test [5] deals with HeLa. The experiment in a line: In vitro inhibition of cytochrome C release in isolated mitochondria by the compound was determined. Format: functional, Homo sapiens. Also on record: concentration or dose not given beside the values.

As usually defined, the inhibition is how much of the control response was suppressed. A word on the IC50: it is the concentration that gives 50% inhibition. With `COc1ccc(CN2CCN(CC(O)Cn3c4ccc(Br)cc4c4cc(Br)ccc43)CC2)cc1` (stereo not given), testing at 20 µM in the test with HeLa [1] gave an inhibition of 99%. In the test on HeLa [2], the inhibition at 5 µM stood at 61%. The same molecule registered an inhibition at 10 µM in the test on HeLa [3] of 82%. The same molecule yielded an IC50 in test [4] of 370 nM.
The term Inhibition denotes the relative decrease from the control value, in per cent. As to `OC(CN1CCN(c2ccc(F)cc2)CC1)Cn1c2ccc(Br)cc2c2cc(Br)ccc21` (stereo not given), the concentration for half-maximal inhibition (IC50) in test [4] turned out to be 2380 nM. This molecule also displayed an Inhibition in the test with HeLa [5] of 15%.
In the test on HeLa [1], `OC(CN1CCNCC1)Cn1c2ccc(Br)cc2c2cc(Br)ccc21` (stereo not given) gave an inhibition at 20 µM of 99%. This molecule also displayed an inhibition at 5 µM in the test with HeLa [2] of 77%. This molecule had an inhibition at 10 µM in the test with HeLa [3] of 94%.
In test [4], `O=C(CN1CCNCC1)Cn1c2ccc(Br)cc2c2cc(Br)ccc21` yielded an IC50 of 290 nM. In the test with HeLa [5], this molecule showed an Inhibition of 71%.
In test [4], `O=C(Nc1ccc(F)cc1)N1CCN(CC(O)Cn2c3ccc(Br)cc3c3cc(Br)ccc32)CC1` (stereo not given) showed an IC50 of 1270 nM. Moreover, the Inhibition with HeLa [5] was 15%.
The matching figures for `OC(CN1CCN(Cc2ccc(F)cc2)CC1)Cn1c2ccc(Br)cc2c2cc(Br)ccc21` (stereo not given): 480 nM and 65%.
Molecule `OC(CN1CCN(CCN2CCOCC2)CC1)Cn1c2ccc(Br)cc2c2cc(Br)ccc21` (stereo not given) returned an inhibition at 20 µM with HeLa [1] of 95%. In addition, in the test on HeLa [2], 5 µM produced 21% inhibition. In the test with HeLa [3], the inhibition at 10 µM came out at 74%. Moreover, the half-maximal inhibitory concentration (IC50) in test [4] was 470 nM.
`NC(CN1CCNCC1)Cn1c2ccc(Br)cc2c2cc(Br)ccc21` (stereo not given) yielded an IC50 in test [4] of 960 nM. The same molecule showed an Inhibition with HeLa [5] of 71%.
Molecule `FC(F)(CN1CCNCC1)Cn1c2ccc(Br)cc2c2cc(Br)ccc21` gave an inhibition at 20 µM in the test with HeLa [1] of 96%. Besides, 5 µM produced 61% inhibition in the test with HeLa [2]. Also, the inhibition at 10 µM in the test with HeLa [3] turned out to be 83%. For the same molecule, the 50% inhibitory concentration (IC50) in test [4] was 680 nM.
